# From patent publication US11395479B2, “Method to reduce microbial bloom in poultry hatchery” (Novozymes A/S, priority 2016, dated 2022)
# Key:
# Type in all cases: in vivo, commercial broiler chicks
# Details in all cases: gut of DOH chicks, n = 12, ± Std Err
# thermotolerant spores = assay: Gut counts of day of hatch chicks: thermotolerant spores on TSA
# Experimental: Guts from chicks treated with either the bacterial formulation of example 3 or formaldehyde were tested for thermotolerant spores, presumptive Lactic Acid Bacteria (LAB) and Gram-negative bacteria.
# Directly prior to chick removal from the hatchers twelve birds per treatment group were removed from the hatcher. Birds were transported (˜1 h) to an appropriate research facility and humanely euthanized by CO2 asphyxiation. Gut packs containing duodenum, ileum, and ceca were aseptically removed and separately homogenized. Gut samples were diluted in sterile saline at a 1:4 wt/vol rate. Ten-fold dilutions were made by placing 200 μl of the sample (N) into the first row of a sterile 96-well plate and sequentially diluting by transferring 20 μl to 180 μl sterile saline to the 10^−7 dilution. The dilutions (N to 10^−7) were plated by 10 μl drop onto both MRS agar and MacConkey's agar. For Trypticase soy agar (TSA) plating, the gut samples were Pasteurized at 80° C. for 10 min before transferring 200 μl into a 96 well plate. The rest of the dilutions and plating methods were the same as the MRS and MacConkey's agar. Agar plates were counted after 24 h of incubation at 37° C.
# [1] = system: presumptive Lactic Acid Bacteria (LAB); assay: Gut counts of day of hatch chicks: presumptive LAB on MRS agar
# Gram-negative bacteria = assay: Gut counts of day of hatch chicks: Gram-negative bacteria on MacConkey's agar
smiles,measurement,setting,value
C=O [Formaldehyde],"thermotolerant spore counts, TSA, Exp 1","thermotolerant spores; Exp 1, samples not pasteurized",8.95 ± 0.2 Log10 CFU/g
same,"thermotolerant spore counts, TSA, Exp 2","thermotolerant spores; Exp 2, pasteurized",1.34 ± 0.48 Log10 CFU/g
same,"thermotolerant spore counts, TSA, Exp 3","thermotolerant spores; Exp 3, pasteurized",0.69 ± 0.36 Log10 CFU/g
same,"thermotolerant spore counts, TSA, Exp 4","thermotolerant spores; Exp 4, pasteurized",0.44 ± 0.3 Log10 CFU/g
same,"thermotolerant spore counts, TSA, Exp 5","thermotolerant spores; Exp 5, pasteurized",0 ± 0 Log10 CFU/g
same,"presumptive Lactic Acid bacteria counts, MRS agar, Exp 1",[1]; Exp 1,7.79 ± 0.17 Log10 CFU/g
same,"presumptive Lactic Acid bacteria counts, MRS agar, Exp 2",[1]; Exp 2,7.26 ± 0.34 Log10 CFU/g
same,"presumptive Lactic Acid bacteria counts, MRS agar, Exp 3",[1]; Exp 3,6.26 ± 0.83 Log10 CFU/g
same,"presumptive Lactic Acid bacteria counts, MRS agar, Exp 4",[1]; Exp 4,5.1 ± 0.99 Log10 CFU/g
same,"presumptive Lactic Acid bacteria counts, MRS agar, Exp 5",[1]; Exp 5,2.85 ± 0.96 Log10 CFU/g
same,"presumptive Gram-negative bacteria counts, MacConkey's agar, Exp 1",Gram-negative bacteria; Exp 1,8.39 ± 0.19 Log10 CFU/g
same,"presumptive Gram-negative bacteria counts, MacConkey's agar, Exp 2",Gram-negative bacteria; Exp 2,6.56 ± 0.83 Log10 CFU/g
same,"presumptive Gram-negative bacteria counts, MacConkey's agar, Exp 3",Gram-negative bacteria; Exp 3,3.9 ± 0.93 Log10 CFU/g
same,"presumptive Gram-negative bacteria counts, MacConkey's agar, Exp 4",Gram-negative bacteria; Exp 4,4.95 ± 0.99 Log10 CFU/g
same,"presumptive Gram-negative bacteria counts, MacConkey's agar, Exp 5",Gram-negative bacteria; Exp 5,2.84 ± 0.92 Log10 CFU/g
